PubChem BioAssay AID2060497 (Molecular Pharmacology Branch, DTP, NCI, 2025)

Tested on: 317291-083-R-J1-PDC complex spheroids, viability
Experiment: Anticancer human tumor 317291-083-R-J1-PDC patient-derived soft tissue sarcoma cell line growth inhibition [GQUAD]
Settings: for IC50: curve of first compound; for viability, T/C: stronger effect = lower value
How it was run: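 Multi-cell-type spheroids of tumor cells with HUVEC and mesenchymal stem cells, treated with drug combinations. Concentrations descend in half-log steps from near clinical Cmax, or from 10 microM where Cmax is unknown; viability read-out.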
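Note: spheroids exposed to compounds for one week before readout.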
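Throughout, for viability, T/C: percent viability relative to DMSO vehicle wells taken as 100%.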

CC[C@@]1(O)C(=O)OCc2c1cc1n(c2=O)Cc2cc3c(CN(C)C)c(O)ccc3nc2-1 + Cc1cnc(CNC(=O)c2c(=O)c3ccc(N4CCCN(C)CC4)nc3n3c2sc2ccccc23)cn1
IC50 (second compound 0.0316 µM): 35.5 nM | IC50 (second compound 0.1 µM): 19 nM | IC50 (second compound 0.316 µM): < 0.999 nM | IC50 (second compound 1 µM): < 0.999 nM | IC50 (second compound 3.16 µM): < 0.999 nM | IC50 (second compound 10 µM): < 0.999 nM | viability, T/C (second compound 0.0316 µM, first compound 0.000999 µM): 86.2% | viability, T/C (second compound 0.0316 µM, first compound 0.00316 µM): 93.8% | viability, T/C (second compound 0.0316 µM, first compound 0.00999 µM): 91.7% | viability, T/C (second compound 0.0316 µM, first compound 0.0316 µM): 53.3% | viability, T/C (second compound 0.0316 µM, first compound 0.0999 µM): 20.8% | viability, T/C (second compound 0.0316 µM, first compound 0.316 µM): 15.8% | viability, T/C (second compound 0.1 µM, first compound 0.000999 µM): 71% | viability, T/C (second compound 0.1 µM, first compound 0.00316 µM): 80.7% | viability, T/C (second compound 0.1 µM, first compound 0.00999 µM): 78.1% | viability, T/C (second compound 0.1 µM, first compound 0.0316 µM): 29% | viability, T/C (second compound 0.1 µM, first compound 0.0999 µM): 21.9% | viability, T/C (second compound 0.1 µM, first compound 0.316 µM): 12.8% | viability, T/C (second compound 0.316 µM, first compound 0.000999 µM): 43.5% | viability, T/C (second compound 0.316 µM, first compound 0.00316 µM): 52.9% | viability, T/C (second compound 0.316 µM, first compound 0.00999 µM): 28.2% | viability, T/C (second compound 0.316 µM, first compound 0.0316 µM): 20.7% | viability, T/C (second compound 0.316 µM, first compound 0.0999 µM): 17.3% | viability, T/C (second compound 0.316 µM, first compound 0.316 µM): 9.62% | viability, T/C (second compound 1 µM, first compound 0.000999 µM): 35.7% | viability, T/C (second compound 1 µM, first compound 0.00316 µM): 28.2% | viability, T/C (second compound 1 µM, first compound 0.00999 µM): 25.6% | viability, T/C (second compound 1 µM, first compound 0.0316 µM): 20.1% | viability, T/C (second compound 1 µM, first compound 0.0999 µM): 14.7% | viability, T/C (second compound 1 µM, first compound 0.316 µM): 15.3% | viability, T/C (second compound 3.16 µM, first compound 0.000999 µM): 39.7% | viability, T/C (second compound 3.16 µM, first compound 0.00316 µM): 37.8% | viability, T/C (second compound 3.16 µM, first compound 0.00999 µM): 16.1% | viability, T/C (second compound 3.16 µM, first compound 0.0316 µM): 14.7% | viability, T/C (second compound 3.16 µM, first compound 0.0999 µM): 13.4% | viability, T/C (second compound 3.16 µM, first compound 0.316 µM): 7.16% | viability, T/C (second compound 10 µM, first compound 0.000999 µM): 28.9% | viability, T/C (second compound 10 µM, first compound 0.00316 µM): 30.3% | viability, T/C (second compound 10 µM, first compound 0.00999 µM): 45.9% | viability, T/C (second compound 10 µM, first compound 0.0316 µM): 19.7% | viability, T/C (second compound 10 µM, first compound 0.0999 µM): 24% | viability, T/C (second compound 10 µM, first compound 0.316 µM): 12.2%
